Laboratory results from US7767642B2, “Therapeutic peptides for the treatment of metastatic cancer” (Arizona Biomedical Research Commission, priority 2005, dated 2010).
Where “and” joins values, the source holds several entries; their conditions need not be identical. Equal values may be shown once. Where no end group is shown, it is not given here. TAT = Protein Transduction Domain of the HIV protein TAT (trans-activating transcriptional activator protein), a cell-penetrating sequence

Tests used:
[1] = system: MDA-MB-468 breast cancer cells; experiment: Transwell collagen gel invasion assay, peptides delivered with Bioporter; format: cell-based
Protocol: FIG. 1. […] A collagen gel matrix was poured onto the bottom of 8 uM pore sized-transwell inserts (modified Boyden's chamber), then inverted into 20% FBS. Cells were incubated with 100 ng/ml of peptide (with Bioporter reagent to allow for cellular uptake), then added to the top of the Transwell. Cells (serum-free) were allowed to invade into the gel, the gel was removed and invading cells enumerated.
(§1) Peptide treatment and invasion assay: 8 um pore size Transwell inserts (Corning) will be inverted and coated with 90 ul of Type I collagen (rat tail, BD Scientific) gel mixture (2.2% sodium bicarbonate, 10× M199 media), and allowed to solidify for 30 minutes. Wells are then be inverted into DMEM with 20% fetal calf serum and allowed to rehydrate. Peptides are incubated with BioPORTER reagent (Sigma, St. Louis Mo.) for 5 minutes to promote cellular uptake, vortexed, and added to cells in serum-free media (10 ng/ml, 100 ng/ml and […] concentrations will be tested) and placed in the upper chamber of the Transwell. Cells will then be incubated for 2, 4 or 24 hours. Media is removed and gels fixed with 4% paraformaldehyde for 30 minutes and transferred to PBS, pH 7.4. Collagen gels will then either be stained with bizbenzamide for 40 minutes and all cells invaded into a gel enumerated or used in immunofluorescence assays. Invasion of peptide-treated cells are compared to PBS/bioporter treated controls or irrelevant peptide treatment.
To investigate the functional significance of MUC1 expression on breast cancer invasion, we have incubated invasive breast cancer cell lines with MUC1-mimetic peptides designed to the β-catenin interacting domain. We then monitored the effects of peptide treatment on invasion through a filter and into a collagen gel.
We performed initial experiments with these β-catenin-binding site (M2) peptides in MDA-MB-468 cells. […] We observed less than 15 M2 peptide-treated cells invaded into a collagen matrix in a 4 hour period, compared to approximately 125 cells in PBS controls.

[2] = system: MDA-MB-231 and MDA-MB-468 invasive breast cancer cell lines; experiment: Invasion assay with TAT-conjugated MUC1-mimetic peptides, cell line not given; format: cell-based; settings: TAT-conjugated peptide
Protocol: as §1
We have designed TAT-conjugated MUC1-mimetic peptides for their ability to inhibit the invasion of MDA-MB-231 and MDA-MB-468 invasive breast cancer cell lines.
Peptides were designed to carry the TAT transduction domain for entry into cells. The following peptides were designed, produced and tested: […]

MDA-MB-231 cell line [3] = experiment: Scid xenograft model Trial 1, i.p. treatment; format: in vivo; settings: for animals with tumor regression / tumor regression in the regressing animal: once daily MWF
Protocol: Trial 1. The MDA-MB-231 cell line was injected (in matrigel) into the mammary fat pad of 24 mice. These mice were then divided into 3 groups and injected once daily, MWF, for 2 weeks.
Group IA was treated (i.p.) with 10 ug/g body weight MEBTAT peptide
Group IB was treated (i.p.) with 20 ug/g body weight MEBTAT peptide
Group IC was treated (i.p.) with 20 ug/g body weight TAT peptide
At the end of 2 weeks, we had 27% tumor regression in 1/7 animals in group IA, 7% tumor regression in 1/7 animals in group IB, and no tumor regression (0/7) in group IC.
All tumors were surgically resected 3 days after final drugging, and the mice were monitored for an additional 10 days. […] This correlates to a 25% increase in overall survival time for the animals taking 20 ug/g body weight of MEBTAT compared to TAT.

β-catenin = target: T1, β-catenin (Homo sapiens, UniProt P35222); experiment: β-catenin localization after peptide treatment; format: cell-based; settings: MDA-MB-231 cells treated with peptide
T1 construct: endogenous in cells; host or cells: MDA-MB-231 breast cancer cells
T1 sequence (P35222 1-781): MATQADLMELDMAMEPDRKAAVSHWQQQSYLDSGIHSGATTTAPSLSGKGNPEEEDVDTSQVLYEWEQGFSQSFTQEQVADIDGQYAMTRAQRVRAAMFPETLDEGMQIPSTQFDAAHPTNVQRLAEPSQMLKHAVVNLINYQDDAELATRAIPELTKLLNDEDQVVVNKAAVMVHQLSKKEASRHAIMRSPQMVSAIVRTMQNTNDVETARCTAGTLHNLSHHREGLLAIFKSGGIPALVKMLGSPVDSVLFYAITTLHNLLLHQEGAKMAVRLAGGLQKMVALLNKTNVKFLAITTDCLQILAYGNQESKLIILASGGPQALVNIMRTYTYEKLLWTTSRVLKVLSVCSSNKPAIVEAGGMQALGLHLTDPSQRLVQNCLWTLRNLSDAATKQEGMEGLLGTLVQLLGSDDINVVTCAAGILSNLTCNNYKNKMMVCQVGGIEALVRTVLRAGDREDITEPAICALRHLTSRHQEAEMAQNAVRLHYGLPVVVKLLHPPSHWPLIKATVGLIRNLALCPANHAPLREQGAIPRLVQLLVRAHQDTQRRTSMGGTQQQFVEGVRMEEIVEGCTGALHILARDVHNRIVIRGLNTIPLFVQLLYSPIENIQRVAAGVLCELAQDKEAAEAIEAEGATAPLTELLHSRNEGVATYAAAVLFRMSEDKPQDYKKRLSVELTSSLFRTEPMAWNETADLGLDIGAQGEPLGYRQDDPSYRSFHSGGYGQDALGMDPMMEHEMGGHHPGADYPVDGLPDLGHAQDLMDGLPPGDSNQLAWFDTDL
Protocol: Immunofluorescence: Cells undergoing invasion through collagen gels are immunofluorescently labeled in situ (while in the collagen gel). For immunofluorescence on collagen gels, gels are permeabilized with 0.5% Triton X-100 in 10 mM Pipes (pH 6.8), 50 mM NaCl, 300 mM sucrose and 3 mM MgCl2 for 5 minutes at room temperature. Gels are blocked with 3% BSA (Sigma), 0.05% Tween 20, in a 1:1 solution of PBS and Enhancing Wash Buffer (Innovex). Primary antibodies are incubated overnight at 4° C., and gels washed for 6 hours in 1:1 PBS: Enhancing Wash Buffer. Secondary antibodies are incubated overnight at 4° C., and washed again for 6 hours at room temperature. Gels are then mounted, coverslipped and analyzed using a Zeiss laser scanning confocal microscope. The following antibodies are used: anti-biotin (streptavidin-Alexa594, 1:500, Molecular Probes), anti-Muc1 (1:100, Santa Cruz), anti-vinculin (V9131, 1:400, Sigma Chemical Company) anti-β-catenin (H-102, 1:100, Santa Cruz Biochemical), anti-fascin (FCN01, 1:50, Neomarkers), and phalloidin-Alexa546 (1:100, Molecular Probes). Secondary antibodies can be either Alexa 488 or 546 from Molecular Probes.

MDA-MB-231 cell line [4] = experiment: Scid xenograft model Trial II, i.v. treatment; format: in vivo; settings: 20 ug/g body weight i.v.
Protocol: Trial II: The MDA-MB-231 cell line was injected (in matrigel) into the mammary fat pad of 16 mice. These mice were then divided into 2 groups and injected once daily, MTWThF, for 2 weeks.
Group IIA was treated (i.v.) with 20 ug/g body weight MEBTAT peptide
Group IIB was treated (i.v.) with 20 ug/g body weight TAT peptide
All animals were sacrificed and analyzed for metastases.

[5] = system: MDA-MB-231 breast cancer cells; experiment: Invasion assay with TAT-conjugated MUC1-mimetic peptides; format: cell-based; settings: MDA-MB-231, compared to control TAT peptide
Protocol: FIG. 4. Treatment of MDA-MB-231 cells with MEBTAT leads to a 5-fold decrease in cell invasiveness as compared to control TAT peptide in invasion assays.
as §1
We have designed TAT-conjugated MUC1-mimetic peptides for their ability to inhibit the invasion of MDA-MB-231 and MDA-MB-468 invasive breast cancer cell lines. […]

MDA-MB-231 cells = experiment: 96-well invasion assay of MEBTAT and alanine-scanning mutants; format: cell-based; settings: 96-well format, 1 hour treatment, 18 hours invasion
Protocol: The amino acids of the MEB sequence [PYEKVSAGNGGSSLS; SEQ ID NO: 1] were replaced, one amino acid at a time, with alanine. (Note that there are only […] mutants, as one of the parental amino acid residues. was already an alanine). Note also that this experiment was done one time, with 4 replicas at each data point.
A new assay was performed in a 96-well format. While the suppression of invasion is not as robust as that observed in the 24-well format, we still observe a 3-fold suppression of invasion with MEBTAT treatment over TAT or PBS. […] Altering any of the remaining amino acids completely eliminated the effect, indicating a critical role for both the YEKV (EGFR/src binding site) and the SAGNGGSSLS (beta-catenin binding site). Also important is the P (at residue #1) that links MEB to the TAT. The proline could be providing important access of the peptide to MUC1 binding sites.
MDA-MB-231 cells were treated for 1 hour with MEBTAT (M), TAT (T), PBS (P), or alanine scanning mutants of MEBTAT. Cells were treated with Calcein-AM and allowed to invade across an 8-uM Transwell into a Type I collagen gel for 18 hours. Invasion was analyzed by spectrophotometry.

[6] = 10 ug/g body weight i.p., end of 2 weeks
[7] = 20 ug/g body weight i.p., end of 2 weeks

## M2: MUC1-β-catenin binding domain mimetic peptide, SEQ ID NO: 7 (SAGNGGSSLSY; listed as Homo sapiens)
[1]; 4 hour period, approximately 125 cells in PBS controls
  cells invaded into a collagen matrix: less than 15 cells
[1]; MDA-MB-468, 100 ng/ml peptide with Bioporter, vs PBS controls
  inhibition of invasion into a collagen matrix: approximately 8 fold
[1]; MDA-MB-468, compared to PBS treated controls
  effect on invasion: inhibits invasion

## TAT-SAGNGGSSLS ({TAT}-SAGNGGSSLS; listed as Homo sapiens) [MBTAT]
[2]
  suppression of invasion: 8 fold

## TAT-PYEKVSAGNGGSSLS ({TAT}-PYEKVSAGNGGSSLS; listed as Homo sapiens) [MEBTAT]
MDA-MB-231 cell line [3]; [6]
  animals with tumor regression: 1/7
  tumor regression in the regressing animal: 27%
MDA-MB-231 cell line [3]; 20 ug/g body weight i.p.
  increase in overall survival time compared to TAT: 25%
MDA-MB-231 cell line [3]; [7]
  animals with tumor regression: 1/7
  tumor regression in the regressing animal: 7%
MDA-MB-231 cell line [3]; 10 and 20 ug/g body weight i.p., 2 weeks
  toxicity of the peptide treatment: no detectable toxicity
MDA-MB-231 cell line [3]; all 3 groups, monitored 10 days after resection
  tumor regrowth after surgical resection: no statistically significant difference in growth rates
MDA-MB-231 cell line [3]; all treatment groups, i.p., end of 2 weeks
  decrease in tumor volume compared to TAT: 20%
β-catenin
  β-catenin localization: β-catenin localization at sites of focal adhesion and lamellapodia
MDA-MB-231 cell line [4]; 2 weeks
  toxicity: no detectable toxicity
MDA-MB-231 cell line [4]; end of 2 weeks, individual mice
  tumor volume reduction in regressing animals: 7% and 9% and 21%
MDA-MB-231 cell line [4]; once daily MTWThF, end of 2 weeks
  animals with tumor regression: 3/8
MDA-MB-231 cell line [4]; sacrifice at 2 weeks
  visible metastases in diaphragms (animals): 4/8
  visible metastases in livers (animals): 1/8
  visible metastases in lungs (animals): 0/8
[5]
  decrease in cell invasiveness / block of invasion: 5 fold and 6 fold
MDA-MB-231 cells
  suppression of invasion over TAT or PBS: 3 fold

## TAT-SSTDRSPYEKVSAGNGGSSLSYTNP ({TAT}-SSTDRSPYEKVSAGNGGSSLSYTNP; listed as Homo sapiens) [MTAT1, used for positive controls, reference compound]
[2]
  increase of invasion: 18 fold
